Test results published in US12384777B2 (Tay Therapeutics Limited, priority 2019, dated 2025).
Where two headings read alike, the source gives them in different places.

Key:
BRD2(1) = BRD2(1) (Homo sapiens (Human), UniProt P25440); assay: Bromodomain binding assay, BRD2(1); details: single point, screened at 30 times Kd; lower numbers indicate stronger hits
Protocol: (§1) T7 phage strains displaying bromodomains were grown in parallel in 24-well blocks in an E. coli host derived from the BL21 strain. E. coli were grown to log-phase and infected with T7 phage from a frozen stock (multiplicity of infection=0.4) and incubated with shaking at 32° C. until lysis (90-150 min). The lysates were centrifuged (5,000×g) and filtered (0.2 μm) to remove cell debris. Streptavidin-coated magnetic beads were treated with biotinylated small molecule or acetylated peptide ligands for 30 min at RT to generate affinity resins for bromodomain assays. The ligated beads were blocked with excess biotin and washed with blocking buffer (SeaBlock (Pierce), 1% BSA, 0.05% Tween 20, 1 mM DTT) to remove unbound ligand and to reduce non-specific phage binding. Binding reactions were assembled by combining bromodomains, ligated affinity beads, and test compounds in 1× binding buffer (16% SeaBlock, 0.32×PBS, 0.02% BSA, 0.04% Tween 20, 0.004% Sodium azide, 7.9 mM DTT). Test compounds were prepared as 1000× stocks in 100% DMSO and subsequently diluted 1:25 in MEG. The compounds were then diluted directly into the assays such that the final concentrations of DMSO and MEG were 0.1% and 2.4%, respectively. All reactions were performed in polypropylene 384-well plates in a final volume of 0.02 ml. The assay plates were incubated at RT with shaking for 1 hr and the affinity beads were washed with wash buffer (1×PBS, 0.05% Tween 20). The beads were then re-suspended in elution buffer (1×PBS, 0.05% Tween 20, 2 μM non-biotinylated affinity ligand) and incubated at RT with shaking for 30 min. The bromodomain concentration in the eluates was measured by quantitative polymerase chain reaction (qPCR).
(§2) An 11-point 3-fold serial dilution of each test compound was prepared in 100% DMSO at 1000× final test concentration. […] Most dissociation constants were determined using a compound top concentration=10,000 nM. If the initial dissociation constant determined was <0.169 nM (the lowest concentration tested), the measurement was repeated with a serial dilution starting at a lower top concentration. […]

BRDT(1) = BRDT(1) (Homo sapiens (Human), UniProt Q58F21); assay: Bromodomain binding assay, BRDT(1); details: single point, screened at 30 times Kd; lower numbers indicate stronger hits
Protocol: as §1, §2

[1] = system: CD4+ T-cells stimulated by CD2, CD3 and CD28 antibodies; assay: Cellular activity IL-4: reduction of IL-4 levels in activated CD4+ T-cells; type: cell-based, human; details: Homo sapiens, T-cell
Protocol: • 1. CD4^+ T-cells are isolated from cryopreserved human peripheral blood mononuclear cells (PBMCs) using EasySep™ Kit (Cat. No. 17952, Stemcell Technologies). • 2. CD2, CD3 and CD28 antibodies coated beads from T cell Activation/Expansion Kit (Cat. No. 130-091-441, Miltenyi Biotec) are added to the CD4^+ T-cells at a bead-to-cell ratio of 1:2. • 3. CD4^+ T-cells along with the beads are seeded at 2×10^5 cells/well in a round bottom 96-well plate and treated with different compounds and controls in a total volume of 200 μl. • 4. The cells are cultured for 48 hrs at 37° C., 5% CO2. • 5. Supernatant is collected and IL-4 is analysed by ELISA.

[2] = system: healthy human skin stimulated by a Th2 or Th17 biasing cocktail; assay: Th2 and Th17 stimulation of human skin explants, IL-4 / IL-17A mRNA; type: cell-based
Protocol: • 1. Freshly excised healthy human skin tissue from abdominoplasties is defatted, cleaned and sectioned into 7 mm biopsies. • 2. The biopsies are placed in Transwell® inserts with the epidermis apical and exposed to air and the dermis submerged in media in the basal chamber. • 3. The biopsies are pre-treated overnight at 37° C., 5% CO2 with different compounds and controls added to the media in the basal chamber. • 4. The next day, contents of the basal chamber is replaced with fresh media containing the test compound and a stimulation cocktail for either Th2 inflammation (proprietary Medpharm cocktail) or Th17 inflammation (mix of antibodies against CD3, CD28, IL-4, IFNγ and recombinant IL-1β, IL-6, IL-21, TGF-β). • 5. The biopsies are incubated at 37° C., 5% CO2 for a further 24 hrs. • 6. After harvesting, the biopsies are cut in half, and one half is homogenized and used for RNA extraction by standard methods. IL-4 or IL-17A is assessed by RT-qPCR.

[3] = Stability in human skin S9 fraction; type: in vitro ADME; details: human, human skin S9 fraction, pH 7.4; 0.3 mg/mL S9, NADPH, UDPGA, 0.5 μM compound; read-out: T1/2 (min) in human skin S9 fractions
Protocol: An incubation mixture was prepared containing 50 mM potassium phosphate buffer, pH 7.4), 0.3 mg/mL human skin S9 (Sekisui Xenotech), NADPH (final conc 0.8 mg/mL), UDPGA (final conc 0.16 mg/mL) and warmed to 37° C. for 5 min. The reaction was initiated upon addition of test compound (final concentration 0.5 μM). Immediately, at time zero, then at 3, 6, 15, 30, 60, 120 and 180 min, an aliquot (50 μL) of the incubation mixture was removed and mixed with acetonitrile (100 μL) to terminate the reaction. Internal standard was added to all samples, the samples centrifuged to sediment precipitated protein and the plates then sealed prior to UPLC-MS/MS analysis using a Quattro Premier XE (Waters corporation, USA).
Grafit (Erithacus Ltd) was used to calculate the exponential decay and consequently the rate constant (k) from the ratio of peak area of test compound to internal standard at each timepoint. The half life (T1/2) of each test compound was determined using the following equation: T1/2=0.693/k

[4] = Hydrolytic stability at a range of pHs; type: physicochemical; details: for decomposition at all pH values tested: pH 4.0, 5.5 and 7.4, text summary; for pH 4.0 % decomposition: pH 4.0 buffer; for pH 4.0 % decomposition / pH 5.5 % decomposition / pH 7.4 % decomposition: 60° C., 6 days; for pH 5.5 % decomposition: pH 5.5 buffer; for pH 7.4 % decomposition: pH 7.4 buffer
Protocol: To test the hydrolytic stability a 1 mg/mL solution of test materials was made in DMSO (0.1% solution). To 300 μL of each solution in a HPLC vials was added 1200 μL of one of the following: pH 4.0 buffer—left at 60° C. for 5 days. Samples taken t=0 hr and 6 days pH 5.5 buffer—left at 60° C. for 5 days. Samples taken t=0 hr and 6 days pH 7.4 buffer—left at 60° C. for 5 days. Samples taken t=0 hr and 6 days A 100 μL aliquot was taken at each time point and added to 900 μL of DMSO. This sample was used to determine % decomposition.
% decomposition was measured with a Bruker MicrOTOF II focus ESI Mass Spectrometer connected in parallel to Dionex Ultimate 3000 RSLC system with diode array detector.

[5] = 48 hrs, ELISA, read-out: EC50 reduction of IL-4 levels
[6] = read-out: cellular EC50 values, reduction of IL-4 levels

Sequence of BRD2(1) (P25440 74-180): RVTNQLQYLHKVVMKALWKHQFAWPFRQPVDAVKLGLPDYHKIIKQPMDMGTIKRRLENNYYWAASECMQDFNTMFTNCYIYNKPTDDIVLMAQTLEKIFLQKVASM

| BRD2(1) % Ctrl (BRD2(1)) [% Ctrl] | BRDT(1) % Ctrl (BRDT(1)) [% Ctrl] | EC50 [1, 5] [nM] | EC50 [1, 6] [nM] | half-life at 0.5 μM [3] [min] | decomposition at all pH values tested [4] [%] | pH 4.0 % decomposition [4] [%] | pH 5.5 % decomposition [4] [%] | pH 7.4 % decomposition [4] [%] | Compound | % reduction in IL-4 mRNA (IL-4) ([2]; 2.5 μM, Th2 biasing cocktail) | % reduction in IL-17A mRNA (IL-17) ([2]; 2.5 μM, Th17 biasing cocktail) | reduction of IL-4 or IL-17 levels ([2]; Th2 or Th17 biasing cocktail) [%] |
| --- | --- | --- | --- | --- | --- | --- | --- | --- | --- | --- | --- | --- |
| 0 | 0 | ≤ 10 | < 100 | > 120 | < 5 | 0 | 0 | 0 | Cn1cc(-c2cccc(O)c2Oc2ccccc2)c2cc[nH]c2c1=O [Example 1, 4-(3-hydroxy-2-phenoxyphenyl)-6-methyl-1,6-dihydro-7H-pyrrolo[2,3-c]pyridin-7-one] | +++ (> 75% reduction) | +++ (> 75% reduction) | > 50 |
|  |  | 10 to 100 | < 100 | > 120 | < 5 | 0 | 0 | 0 | Cn1cc(-c2c(O)cccc2Oc2ccccc2)c2cc[nH]c2c1=O [Example 3, 4-(2-hydroxy-6-phenoxyphenyl)-6-methyl-1,6-dihydro-7H-pyrrolo[2,3-c]pyridin-7-one] |  |  |  |
